The values that follow come from US8084602B2, “Porphyrin derivatives and their use in photodynamic therapy” (Destiny Pharma Limited, priority 2002, dated 2011).

In series [1] the test system is S. aureus ATCC BAA-44 (a methicillin resistant S. aureus). Kind of series: Cell survival (colony forming unit) with or without illumination. In kind it is cell-based, Staphylococcus aureus. To be noted: S. aureus. As for the experimental part:
(§1) The toxic effects of exemplary compounds of the invention against two bacterial strains, the Gram negative bacterium Escherichia coli (strain ATCC 25922) and the Gram positive bacterium Staphylococcus aureus (methicillin-resistant strain ATTC BAA-44), were evaluated by measuring the extent of growth inhibition (bacteriostatic effect) and growth […] (cytocidal effect) in the dark and upon light exposure. Initial compound screening was undertaken using white light [390-740 nm] (150 mW/cm^2) for various timepoints of a concentration of 3 μM (see Table 1). Further experiments were undertaken on those compounds identified from this initial screen using a light source emitting light at a wavelength between 417-420 nm at 15.2 mW/cm^2, 13.68 J/cm^2 (Waldmann Eclairage SA, France) (see Table 20.
(§2) For the further investigation of the exemplary compounds (Table 2), the following protocol was adopted: • (i) Bacteria (S. aureus BAA-44 and E. coli 25922) were grown in brain heart infusion (BHI) broth until they reached the stationary phase of growth. • (ii) The cells were harvested by centrifugation (3000 g for 15 min) with a table centrifuge, washed with 10 mM PBS at pH 7.4 containing 2.7 mM KCl and 0.14 M NaCl and suspended in PBS at an optical density of 0.7 at 650 nm corresponding to 10^8-10^9 cells/ml. • (iii) The bacteria, at the desired cell density (˜10^8 cells/ml) were incubated for 5 min in the dark with various concentrations of the exemplary compounds. • (iv) At the end of the incubation period the cells were washed three times with PBS, suspended in PBS, transferred into a 96-well microtitre plate (200 μl/well) and illuminated for 15 min with the Waldmann light source (15.2 mW/cm^2; 13.7 J/cm^2). The cells were illuminated from the bottom of the plate laying it on the glass cover of the lamp. • (v) After illumination, cell survival was determined by plating serially diluted aliquots of treated and untreated (i.e. no exemplary compound or light present) cells onto brain heart agar (BHA) and counting the number of colonies after 18-24 h incubation at 37° C.
(§3) the above colony forming unit (CFU) protocol was also used to investigate the photodynamic activity of very low concentrations of the compounds of the invention.

Series [2] has as its system bacterial cells compared to human skin cells. In words: Selectivity for bacteria compared to human skin cells. It counts as cell-based. Conditions: at a dose of 0.1 μM. Here is the method: as §2
(§4) Test compounds were screened for toxicity against cultured human skin cells using normal human epidermal keratinocytes (NHEK) and normal human dermal fibroblasts (NHDF), purchased from CellSystems Biotechnologie GmbH, Germany.
The NHEK and NHDF cells were used between passages 3 and 10. The cells were seeded with 7.5 and/or 15×10^4 cells/well (microtitreplate) and allowed to attach overnight in an incubator (37° C., 5% CO2). After incubation with different concentrations of the selected photosensitisers, the cells were illuminated for fifteen minutes (Light source 236, Waldmann; 15.2 mW/cm^2, 13.7 J/cm^2) and then incubated for 24 hours in the dark.
(§5) Phototoxicity was tested by standard MTT-assay (Mossman et al., 1983, Immunological Methods 65:55-63). MTT is an indicator of metabolically active cells. Dependent on enzyme activity in mitochondria a colour reaction can be visualised, which can be measured by ELISA reader (540 nm). The cell viability data were normalised, i.e. the OD values of cells after PDT without photosensitisers were adjusted to one. Each experiment was repeated three times.

The test system of a further series is E. coli ATCC 25922. Kind of series: Cell survival (colony forming unit) with or without illumination. It counts as cell-based, Escherichia coli. Conditions: E. coli. Here is the method: as §1, §2, §3
The nature of series [3]: Chemical stability, qualitative stress tests (HPLC, LC-MS). To be noted: solid, aqueous solution and PBS; 7 days each at 50° C., 70° C., 90° C. It counts as physicochemical. As for the experimental part:
The following HPLC methodology was established for the analysis of the exemplary compounds of the invention.
The method involves detection by UV at a wavelength of 420 nm, which is very specific for these compounds. In order to monitor impurities not related to the porphyrin structure (and therefore not absorbing at 420 nm) UV spectra of the whole chromatograms were also recorded between 200 nm and 700 nm by DAD (diode array detector) in certain experiments.
Qualitative stress tests were undertaken on the exemplary compounds of the invention. Analysis was undertaken by HPLC & LC-MS. The compounds were stress tested in solid form, in an aqueous solution and a solution made up in phosphate-buffered saline buffer. The samples were initially incubated for 7 days at 50° C. and a sample removed for testing. The samples were then incubated for a further 7 days at 70° C., samples removed as before and the samples incubated further for 7 days at 90° C. HPLC analysis of freshly prepared solutions was undertaken and compared to the samples after 7, 14 and 21 days incubation. A visual comparison of the chromatograms was then undertaken and the content of the main products and by-products as area percentage values determined (see FIG. 11).

For series [4], the system named is normal human epidermal keratinocytes (NHEK). In words: Toxicity against human skin cells, MTT-assay. It counts as cell-based. As for the experimental part: as §4
(§6) The NHEK and NHDF cells were used between passages 3 and 10. The cells were seeded with 7.5 and/or 15×10^4 cells/well (microtitreplate) and allowed to attach overnight in an incubator (37° C., 5% CO2). […]
as §5

Series [5] concerns normal human dermal fibroblasts (NHDF). In words: Toxicity against human skin cells, MTT-assay. It counts as cell-based. Here is the method:
as §4, §6, §5

Setting [6] is: dark toxicity (no illumination), 1 μM.
Setting [7] is: photodynamic activity, 1 μM, illumination 15 min.
[8] abbreviates: dark toxicity, 1 μM, no illumination.
[9] abbreviates: dark toxicity, 10 μM, no illumination.
[10] abbreviates: photodynamic activity (light toxicity), 0.01 μM, illumination 15 min.
[11] abbreviates: photodynamic activity (light toxicity), 0.1 μM, illumination 15 min.
Setting [12] is: photodynamic activity (light toxicity), 1 μM, illumination 15 min.

Regarding `C[N+](C)(C)CCCOc1cccc(-c2c3nc(cc4ccc([nH]4)c(-c4cccc(OCCC[N+](C)(C)C)c4)c4nc(cc5ccc2[nH]5)C=C4)C=C3)c1.[Cl-].[Cl-]` [Compound 12, 5,15-bis-[3-(3-trimethylammonio-propyloxy)-phenyl]-porphyrin dichloride], the Log reduction is <1 (<10^−1) in series [1] (setting [6]); <2 (<10^−2) in series [1] (photodynamic activity, 0.005 μM, illumination 15 min); >3 (>10^−3) in series [1] (photodynamic activity, 0.1 μM, illumination 15 min); >6 (>10^−6) in series [1] (setting [7]); <1 (<10^−1) in the series on E. coli ATCC 25922 (setting [6]); <1 (<10^−1) in the series on E. coli ATCC 25922 (photodynamic activity, 0.5 μM, illumination 15 min). Moreover, in the series on E. coli ATCC 25922 (setting [7]), the Log reduction was >6 (>10^−6). In addition, the “toxicity to bacterial cells compared to human skin cells” value in series [2] is listed as “preferentially toxic to bacterial cells compared to human skin cells”. The “chemical stability under stress test” value in series [3] is “good stability”. The Survival in series [4] (setting [8]) came to 100%; in series [4] (setting [9]) it was 92%; in series [4] (setting [10]), 97%; in series [4] (setting [11]) it was 75%; in series [4] (setting [12]), 0.5%; in series [5] (setting [8]), 100%. The Survival in series [5] (setting [9]) is 95%; in series [5] (setting [10]) it was 100%; in series [5] (setting [11]) it was 85%; in series [5] (setting [12]), 1.0%.
